In one assay the target is T1, HIV-1 RT wild type (WT) (Human immunodeficiency virus type 1 group M subtype B, UniProt P04585).
T1 construct: Heterodimeric RT was eluted using a descending gradient; made in house; host or cells: E. coli
Kind of assay: Reverse Transcriptase (RT) assay, wild type enzyme. The assay is classed as biochemical. The procedure, abridged:
(§1)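 Cell-free assay with recombinant heterodimeric RT (1.5 nM in diluted enzyme, Tris pH 7.8, 0.05% Chaps), poly r(C)/oligo d(G) template-primer and ^3H-dGTP, 30 min at room temperature. TCA-precipitated DNA counted by scintillation; EDTA background subtracted, percent inhibition calculated.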

For assay [1], the target named is T2, HIV-1 RT double mutant K103N/Y181C (Human immunodeficiency virus type 1 group M subtype B, UniProt P04585, K690N/Y768C).
T2 construct: Heterodimeric RT was eluted using a descending gradient; made in house; host or cells: E. coli (inferred; the text describes only wild type and Y181C preparations)
Description: Reverse Transcriptase (RT) assay, double mutant enzyme. The assay is classed as biochemical. The procedure, abridged: as §1

In assay [2] the test system is HIV replication in T-lymphocytes, virus coding for wild type enzyme. Description: ELISA (p24) assay for activity in cell culture, wild type virus. The assay is classed as cell-based. Conditions: Human immunodeficiency virus 1, T-lymphocyte, read-out: EC50 WT RT. The method, then: (§2) ELISA Assay for Assessment of Activity in Cell Culture
(§3) Compounds of the invention were tested for their ability to inhibit HIV replication in cell culture. Viruses coding for Wild type and mutant enzymes were used. T-lymphocytes were infected with the virus, infected cells were incubated in the presence of varying amounts of compounds of the invention, and an ELISA assay for the viral protein p24 was used to quantify viral replication. Table 9 lists the results as EC50 (nM).
(In general: An ELISA detects its analyte on a solid surface through an enzyme-linked reagent.)

In assay [3] the test system is HIV replication in T-lymphocytes, virus coding for mutant enzyme K103N/Y181C. Description: ELISA (p24) assay for activity in cell culture, mutant virus. It is filed as cell-based. Conditions: Human immunodeficiency virus 1, T-lymphocyte, read-out: EC50 K103N/Y181C. The method, then:
as §2, §3

The source of these data is patent US6716836B2, “Non-nucleoside reverse transcriptase inhibitors” (Boehringer Ingelheim (Canada) Ltd., priority 2001, dated 2004).

pEC50, pIC50: −log10 of the molar value.

The pIC50 is −log10 of the IC50, conventionally taken in molar units.

Regarding `CCN1c2ncc(CCOc3cccc4c3CCS(=O)(=O)N4CCOC(N)=O)cc2C(=O)N(C)c2cccnc21` [Compound 639], the negative logarithm of the IC50 (pIC50) (on HIV-1 RT wild type (WT); in assay [1]) was > 7.00 in each case. Further, the pEC50 in assay [2] and in assay [3] was > 7.00 each time.
In the case of `CCN1c2ncc(CCOc3cccc4c3CNS4(=O)=O)cc2C(=O)Nc2c(C)cc(F)nc21` [Compound 223], the pIC50 (at HIV-1 RT wild type (WT); in assay [1]) was > 7.00 each time. Also, the pEC50 in assay [2] and in assay [3] was > 7.00 in each case.
For the compound `CCN1c2ncc(CCOc3cccc4c3CCS(=O)(=O)N4CCCC(=O)O)cc2C(=O)N(C)c2cccnc21` [Compound 625], the pIC50 (on HIV-1 RT wild type (WT); in assay [1]) was > 7.00 each time. In addition, the pEC50 in assay [2] and in assay [3] was > 7.00 throughout.
With `CCN1c2ncc(CCOc3cccc4c3CS(=O)(=O)N4)cc2C(=O)Nc2c(C)cc(F)nc21` [Compound 110], the pIC50 was > 7.00 on HIV-1 RT wild type (WT) and 6.00 to 7.00 in assay [1]. Moreover, the pEC50 in assay [2] and in assay [3] was > 7.00 each time.
Turning to `CCN1c2ncc(CCOc3cccc4c3CS(=O)(=O)N4)cc2C(=O)N(C)c2ccc(F)nc21` [Compound 103], the pIC50 on HIV-1 RT wild type (WT) is > 7.00; in assay [1], 6.00 to 7.00. The pEC50 in assay [2] and in assay [3] was > 7.00 in each case.
On to `CCN1c2ncc(CCOc3cccc4c3CS(=O)(=O)N4Cc3ccc[n+]([O-])c3)cc2C(=O)Nc2c(C)ccnc21` [Compound 137], for which the pIC50 (on HIV-1 RT wild type (WT); in assay [1]) was > 7.00 in each case. Also, the pEC50 in assay [2] and in assay [3] was > 7.00 throughout.
Regarding `CCN1c2ncc(CCOc3cccc4c3CCS(=O)(=O)N4CC(=O)OC)cc2C(=O)N(C)c2cccnc21` [Compound 616], the negative logarithm of the IC50 (pIC50) (on HIV-1 RT wild type (WT); in assay [1]) was > 7.00 each time. The pEC50 in assay [2] and in assay [3] was > 7.00 in each case.
`CCN1c2ncc(CCOc3ccc4c(c3)C(C)(C)NS4(=O)=O)cc2C(=O)Nc2c(C)ccnc21` [Compound 311]: the negative logarithm of the IC50 (pIC50) is > 7.00 at HIV-1 RT wild type (WT) and 6.00 to 7.00 in assay [1]. Besides, the pEC50 in assay [2] and in assay [3] was > 7.00 each time.
Regarding `CCN1c2ncc(CCOc3cccc4c3CCS(=O)(=O)N4CC(=O)NC(C)(C)C(=O)O)cc2C(=O)N(C)c2cccnc21` [Compound 637], the pIC50 (at HIV-1 RT wild type (WT); in assay [1]) was > 7.00 in each case. The pEC50 in assay [2] and in assay [3] was > 7.00 in each case.
Regarding `CCN1c2ncc(CCOc3cccc4c3CCS(=O)(=O)N4Cc3ccncc3)cc2C(=O)N(C)c2cccnc21` [Compound 621], the pIC50 (at HIV-1 RT wild type (WT); in assay [1]) was > 7.00 in each case. The pEC50 in assay [2] and in assay [3] was > 7.00 in each case.
With `CCN1c2ncc(CCOc3cccc4c3C=CS(=O)(=O)N4C)cc2C(=O)N(C)c2cccnc21` [Compound 803], the negative logarithm of the IC50 (pIC50) (on HIV-1 RT wild type (WT); in assay [1]) was > 7.00 throughout. The pEC50 in assay [2] and in assay [3] was > 7.00 throughout.
With `CCOC(=O)CCCN1c2cccc(OCCc3cnc4c(c3)C(=O)N(C)c3cccnc3N4CC)c2CCS1(=O)=O` [Compound 628], the pIC50 (at HIV-1 RT wild type (WT); in assay [1]) was > 7.00 throughout. Besides, the pEC50 in assay [2] and in assay [3] was > 7.00 in each case.
For `CCN1c2ncc(CCOc3cccc4c3C=CS(=O)(=O)N4CCCC(=O)O)cc2C(=O)N(C)c2cccnc21` [Compound 809], the negative-log IC50 (pIC50) at HIV-1 RT wild type (WT) is > 7.00; in assay [1], 6.00 to 7.00. The pEC50 in assay [2] and in assay [3] was > 7.00 in each case.
On to `CCN1c2ncc(CCOc3cccc4c3CS(=O)(=O)N4CC(=O)Nc3cc[n+]([O-])cc3)cc2C(=O)Nc2c(C)cc(Cl)nc21` [Compound 147], for which the pIC50 (on HIV-1 RT wild type (WT); in assay [1]) was > 7.00 in each case. In addition, the pEC50 in assay [2] and in assay [3] was > 7.00 in each case.
